According to patent publication US20230263825A1, “ANTI-CANCER ACTIVITY OF PERBORATE SALTS” (priority 2020, published 2023):

How the values were obtained:
Assay type in all cases: cell-based
[1] = tested on: DMS114 cells (small cell lung cancer cells); test: Flow cytometry (Annexin V / PI) cell death pathways; details: 15 μg/mL, 3 days
Protocol: (§1) Cell death pathways were analysed using the Annexin V method, performed by flow cytometry. In this method, Annexin V dye is used to detect cells entering the apoptosis death pathway (Sigma-Aldrich Cat No: 11858777001), while PI (Propidium Iodide) dye is used to detect cells entering the necrosis death pathway (Sigma-Aldrich Cat No: 11858777001).
(§2) Cells were grown in complete RPMI media (completed with 10% Fetal Bovine Serum and 1% penicillin streptomycin amphotericin) in a humidified CO2 incubator (80% humidity, 5% CO2 and 37° C.). At 70-80% confluency, cells were harvested using Trypsin/EDTA solution. After 3 days of sodium perborate tetrahydrate treatment (15 μg/mL), the cells were harvested and divided into 4 equal tubes. […] Only PI dye was placed in the second tube and necrotic cells were detected. Annexin V dye was placed in the third tube and apoptotic cells were detected. In the fourth tube, two dyes were put together. […] On the other hand, over 90% of MRC5 cells were alive in the control as well as following treatment with sodium perborate tetrahydrate, with only a small percentage (<5%) of treated cells in necrosis.

[2] = tested on: MRC5 cells (healthy lung cells); test: as above; details: 15 μg/mL, 3 days
Protocol: as §1, §2

[3] = tested on: DMS114 cells (small cell lung cancer cells); test: MTS cytotoxicity assay
Protocol: (§3) An MTS reduction (MTS (3-(4,5-dimethylthiazol-2-yl)-5-(3-carboxymethoxyphenyl)-2-(4-sulfophenyl)-2H-tetrazolium) assay) was conducted to analyze the cytotoxic effect of sodium perborate tetrahydrate on lung, chordoma and pancreatic cells and normal cells. In this method, cell viability is determined via the activity of mitochondrial dehydrogenase enzyme, which reduces the tetrazolium dye MTS to its […] formazan (absorbance maximum of 490 nm in PBS).
(§4) Cells were counted and seeded in 96-well culture dishes. […] The positive control comprised 20% Dimethyl Sulfoxide and the negative control comprised complete growth media. Seeding densities were as follows: DMS114: 20.000 cells/well; MRC5: 5.000 cells/well; CH22: 2.000 cells/well; JHC7, UM-Chor1, MUG-Chor1, UCH1 and NPH: 5.000 cells/well; PSN1: 10.000 cells/well; BxPC3 and ASPC: 7.500 cells/well. The effect of sodium perborate tetrahydrate on cell viability was measured as follows. The cell culture medium was discarded and 100 μl of MTS solution (10% glucose solution and 1% MTS-PMS solution in PBS) was added into each well. After 1 hour incubation in a humidified incubator, an absorbance reading was taken to determine mitochondrial dehydrogenase activity and cell survival was calculated relative to the negative control.

[4] = tested on: chordoma (CH22, JHC7, UM-Chor1, MUG-Chor1, U-CH1) cells; test: MTS cytotoxicity assay
Protocol: as §3, §4

[5] = tested on: normal cells (MRC5, NPH); test: MTS cytotoxicity assay
Protocol: as §3, §4

[6] = tested on: pancreatic cancer (PSN1, BxPC3 and ASPC) cells; test: MTS cytotoxicity assay
Protocol: as §3, §4

O.O.O.O.[Na+].[O-]B1OO1 [sodium perborate tetrahydrate]
cells alive [1]: less than 5% | cells in early apoptosis [1]: ~80% | cells in late apoptosis [1]: ~10% | damage to healthy cells (MRC5) relative to cancer cells (DMS114), times less [2]: approximately 5 times | cells alive ([2]; MRC5): over 90% | treated cells in necrosis ([2]; MRC5): less than 5% | cell survival of lung cancer cell lines [3]: effective in decreasing cell survival | EC50 (dose that kills 50% of cells) ([3]; DMS114): 15 µg/mL | time to maximum effect on DMS114 cells ([3]; FIG. 3A): ≤ 1 days | toxicity compared with other boron derivatives ([3]; FIGS. 23A-C, same biological model): significantly less toxic than boric acid and sodium pentaborate pentahydrate | cell survival of chordoma cell lines [4]: effective in decreasing cell survival | cell survival of normal cell lines [5]: minimal impact on the cell survival | cell survival of pancreatic cell lines [6]: effective in decreasing cell survival
